# ChEMBL document CHEMBL1158141, “A sorbicillinoid urea from an intertidal Paecilomyces marquandii” (2006)
# Legend:
# Bacillus subtilis = assay: Antibiotic activity against Bacillus subtilis ATCC 6633 by agar diffusion method; type: functional
# Escherichia coli = assay: Antibiotic activity against Escherichia coli ATCC 25922 by agar diffusion method; type: functional
smiles,measurement,setting,value
CC(C)C[C@@H]1NC(=O)[C@H](Cc2ccccc2)NC1=O,inhibition zone (IZ),Bacillus subtilis,10 mm
same,inhibition zone (IZ),Escherichia coli,8 mm
CC(C)[C@@H]1NC(=O)[C@H](Cc2ccccc2)NC1=O,inhibition zone (IZ),Bacillus subtilis,9 mm
same,inhibition zone (IZ),Escherichia coli,8 mm
